Test results from US10758534B2 (Vertex Pharmaceuticals Incorporated, priority 2014, dated 2020).

Molecular target: T1, F508del (Homo sapiens, UniProt P13569, DEL508-508)
T1 construct: expressed in transfected cells
Assay: Protocol 1: membrane potential optical assay (FLIPR III, voltage sensing dye), identification of potentiator compounds
Assay type: cell-based
Conditions: Table 3, compounds of Table 1
Outline: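 NIH 3T3 fibroblasts stably expressing F508del were cultured at 27° C for 24 hrs for temperature correction, then treated with compounds or DMSO and loaded with a voltage-sensing redistribution dye. Forskolin added with a Cl⁻ gradient activated the channel; membrane-potential fluorescence on FLIPR III reported increased gating.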

T1 sequence (P13569 with tags, fused parts or gaps DEL508-508): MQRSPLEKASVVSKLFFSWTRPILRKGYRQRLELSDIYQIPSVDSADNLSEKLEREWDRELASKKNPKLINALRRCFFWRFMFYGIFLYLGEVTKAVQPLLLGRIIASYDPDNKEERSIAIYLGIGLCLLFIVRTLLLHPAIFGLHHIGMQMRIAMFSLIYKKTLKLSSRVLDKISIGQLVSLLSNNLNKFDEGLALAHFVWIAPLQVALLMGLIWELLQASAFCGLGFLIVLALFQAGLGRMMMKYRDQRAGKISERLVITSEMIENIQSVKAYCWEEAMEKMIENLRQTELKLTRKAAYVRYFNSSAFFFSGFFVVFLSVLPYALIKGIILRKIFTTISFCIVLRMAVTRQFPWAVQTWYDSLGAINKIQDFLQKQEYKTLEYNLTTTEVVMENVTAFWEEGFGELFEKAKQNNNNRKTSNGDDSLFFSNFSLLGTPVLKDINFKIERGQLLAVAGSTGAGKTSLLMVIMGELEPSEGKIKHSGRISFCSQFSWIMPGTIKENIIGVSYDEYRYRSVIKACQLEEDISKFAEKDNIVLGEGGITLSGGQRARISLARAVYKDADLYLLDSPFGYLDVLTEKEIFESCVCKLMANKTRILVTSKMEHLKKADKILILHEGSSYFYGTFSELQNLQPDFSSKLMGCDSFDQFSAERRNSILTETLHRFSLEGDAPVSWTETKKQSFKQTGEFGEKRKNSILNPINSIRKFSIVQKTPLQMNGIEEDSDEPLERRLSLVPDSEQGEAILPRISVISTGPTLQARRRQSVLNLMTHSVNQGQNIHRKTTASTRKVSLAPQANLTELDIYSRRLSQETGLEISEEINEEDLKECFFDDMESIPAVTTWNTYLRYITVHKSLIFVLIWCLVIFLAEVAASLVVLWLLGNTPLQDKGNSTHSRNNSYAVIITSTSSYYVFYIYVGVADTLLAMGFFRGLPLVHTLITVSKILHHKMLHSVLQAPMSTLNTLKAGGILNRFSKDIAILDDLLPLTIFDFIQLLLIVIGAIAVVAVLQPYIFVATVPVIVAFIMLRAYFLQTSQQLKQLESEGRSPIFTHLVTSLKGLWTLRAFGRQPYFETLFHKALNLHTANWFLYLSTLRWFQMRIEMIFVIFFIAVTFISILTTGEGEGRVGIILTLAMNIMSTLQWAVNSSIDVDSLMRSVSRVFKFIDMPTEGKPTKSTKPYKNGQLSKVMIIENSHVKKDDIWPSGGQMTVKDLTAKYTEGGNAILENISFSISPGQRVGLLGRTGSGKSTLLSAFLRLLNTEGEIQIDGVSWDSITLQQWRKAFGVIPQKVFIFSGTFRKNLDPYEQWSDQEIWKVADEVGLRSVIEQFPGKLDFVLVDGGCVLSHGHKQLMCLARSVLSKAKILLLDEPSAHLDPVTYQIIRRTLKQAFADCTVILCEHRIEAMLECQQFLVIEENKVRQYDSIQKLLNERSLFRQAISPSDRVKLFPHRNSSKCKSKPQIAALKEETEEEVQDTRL

Compound | EC30
CC(C)COc1cc(F)cc(-c2ccc(C(=O)NS(=O)(=O)c3cccc(N)n3)c(OC(C)c3ccc(F)cc3)n2)c1 (centres unmarked) [Compound 867, N-[(6-amino-2-pyridyl)sulfonyl]-6-(3-fluoro-5-isobutoxy-phenyl)-2-[1-(4-fluorophenyl)ethoxy]pyridine-3-carboxamide] | +++ (“+++” means <3 uM)
Cc1cc(C)c(Oc2nc(-c3ccccc3)ccc2C(=O)NS(=O)(=O)c2cccc(N(C)C)n2)c(C)c1 [Compound 869, N-[[6-(dimethylamino)-2-pyridyl]sulfonyl]-6-phenyl-2-(2,4,6-trimethylphenoxy)pyridine-3-carboxamide] | +++ (“+++” means <3 uM)
Cc1cc(C)c(Oc2nc(-c3cc(F)cc(OCC(C)C)c3)ccc2C(=O)NS(=O)(=O)c2cccc(CN)n2)c(C)c1 [Compound 871, N-[[6-(aminomethyl)-2-pyridyl]sulfonyl]-6-(3-fluoro-5-isobutoxy-phenyl)-2-(2,4,6-trimethylphenoxy)pyridine-3-carboxamide] | +++ (“+++” means <3 uM)
CC(C)COc1cc(F)cc(-c2ccc(C(=O)NS(=O)(=O)c3cccc(N)n3)c(OC3COC3)n2)c1 [Compound 872, N-[(6-amino-2-pyridyl)sulfonyl]-6-(3-fluoro-5-isobutoxy-phenyl)-2-(oxetan-3-yloxy)pyridine-3-carboxamide] | ++ (“++” means between 3 uM and 10 uM)
Cc1cc(C)c(CN2Cc3ccccc3C2(C)C(=O)NS(=O)(=O)c2ccccc2)c(C)c1 (centres unmarked) [Compound 873, N-(benzenesulfonyl)-1-methyl-2-[(2,4,6-trimethylphenyl)methyl]isoindoline-1-carboxamide] | +++ (“+++” means <3 uM)
CC(C)COc1cc(F)cc(-c2ccc(C(=O)NS(=O)(=O)c3cccc(N)n3)c(OC(C)c3ccccc3)n2)c1 (centres unmarked) [Compound 874, N-[(6-amino-2-pyridyl)sulfonyl]-6-(3-fluoro-5-isobutoxy-phenyl)-2-(1-phenylethoxy)pyridine-3-carboxamide] | +++ (“+++” means <3 uM)
COc1ncccc1S(=O)(=O)NC(=O)C1Cc2ccccc2CCN1Cc1c(C)cc(C)cc1C (centres unmarked) [Compound 876, N-[(2-methoxy-3-pyridyl)sulfonyl]-3-[(2,4,6-trimethylphenyl)methyl]-1,2,4,5-tetrahydro-3-benzazepine-4-carboxamide] | +++ (“+++” means <3 uM)
Cc1cc(C)c(Oc2nc(-c3ccccc3Cl)ccc2C(=O)NS(=O)(=O)c2ccc[nH]c2=O)c(C)c1 [Compound 877, 6-(2-chlorophenyl)-N-[(2-oxo-1H-pyridin-3-yl)sulfonyl]-2-(2,4,6-trimethylphenoxy)pyridine-3-carboxamide] | +++ (“+++” means <3 uM)
CC(C)COc1cc(F)cc(-c2ccc(C(=O)NS(=O)(=O)c3ccn[nH]3)c(N3CCCC(F)C3)n2)c1 (centres unmarked) [Compound 878, 6-(3-fluoro-5-isobutoxy-phenyl)-2-(3-fluoro-1-piperidyl)-N-(1H-pyrazol-5-ylsulfonyl)pyridine-3-carboxamide] | ++ (“++” means between 3 uM and 10 uM)
CC(C)(C)c1ccc(C(=O)NS(=O)(=O)c2ccc(N)cc2)c(C2=CCCCC2)n1 [Compound 880, N-(4-aminophenyl)sulfonyl-6-tert-butyl-2-(cyclohexen-1-yl)pyridine-3-carboxamide] | ++ (“++” means between 3 uM and 10 uM)
CCCN(CC1CC1)c1nc(-c2cc(F)cc(OCC(C)C)c2)ccc1C(=O)NS(=O)(=O)c1cccc(N)n1 [Compound 881, N-[(6-amino-2-pyridyl)sulfonyl]-2-[cyclopropylmethyl(propyl)amino]-6-(3-fluoro-5-isobutoxy-phenyl)pyridine-3-carboxamide] | +++ (“+++” means <3 uM)
Cc1cc(C)c(Oc2nc(C3=CCCCC3)ccc2C(=O)NS(=O)(=O)c2ccc[nH]c2=O)c(C)c1 [Compound 882, 6-(cyclohexen-1-yl)-N-[(2-oxo-1H-pyridin-3-yl)sulfonyl]-2-(2,4,6-trimethylphenoxy)pyridine-3-carboxamide] | +++ (“+++” means <3 uM)
Cc1cc(C)c(CN2Cc3ccc(O)cc3C2(C)C(=O)NS(=O)(=O)c2cccc(N)n2)c(C)c1 (centres unmarked) [Compound 885, N-[(6-amino-2-pyridyl)sulfonyl]-6-hydroxy-1-methyl-2-[(2,4,6-trimethylphenyl)methyl]isoindoline-1-carboxamide] | ++ (“++” means between 3 uM and 10 uM)
CC(C)COc1cc(F)cc(-c2ccc(C(=O)NS(=O)(=O)c3cccc(N)n3)c(N3CCCC(C)(C)C3)n2)c1 [Compound 887, N-[(6-amino-2-pyridyl)sulfonyl]-2-(3,3-dimethyl-1-piperidyl)-6-(3-fluoro-5-isobutoxy-phenyl)pyridine-3-carboxamide] | +++ (“+++” means <3 uM)
COc1ccc(OC)c(-c2ccc(C(=O)NS(=O)(=O)c3ccc[nH]c3=O)c(Oc3c(C)cc(C)cc3C)n2)c1 [Compound 888, 6-(2,5-dimethoxyphenyl)-N-[(2-oxo-1H-pyridin-3-yl)sulfonyl]-2-(2,4,6-trimethylphenoxy)pyridine-3-carboxamide] | ++ (“++” means between 3 uM and 10 uM)
CC(C)COc1ccc(-c2ccc(C(=O)NS(=O)(=O)c3ccc[nH]c3=O)c(N3[C@H](C)CC[C@@H]3C)n2)cc1 [Compound 891, 2-[(2S,5R)-2,5-dimethylpyrrolidin-1-yl]-6-(4-isobutoxyphenyl)-N-[(2-oxo-1H-pyridin-3-yl)sulfonyl]pyridine-3-carboxamide] | +++ (“+++” means <3 uM)
COc1ncc(-c2ccc(C(=O)NS(=O)(=O)c3nccnc3N)c(Oc3ccc(C)cc3C)n2)cc1C [Compound 893, N-(3-aminopyrazin-2-yl)sulfonyl-2-(2,4-dimethylphenoxy)-6-(6-methoxy-5-methyl-3-pyridyl)pyridine-3-carboxamide] | +++ (“+++” means <3 uM)

Other lines, results leading:

EC30 | Compound
+++ (“+++” means <3 uM) | Cc1cc(C)c(Oc2ncc(-c3ccccc3C(C)C)cc2C(=O)NS(=O)(=O)c2cccc(N)n2)c(C)c1 [Compound 865, N-[(6-amino-2-pyridyl)sulfonyl]-5-(2-isopropylphenyl)-2-(2,4,6-trimethylphenoxy)pyridine-3-carboxamide]
+++ (“+++” means <3 uM) | Cc1cc(C)c(Oc2nc(-c3cccc(F)c3O)ccc2C(=O)NS(=O)(=O)c2cccc(N)n2)c(C)c1 [Compound 866, N-[(6-amino-2-pyridyl)sulfonyl]-6-(3-fluoro-2-hydroxy-phenyl)-2-(2,4,6-trimethylphenoxy)pyridine-3-carboxamide]
+++ (“+++” means <3 uM) | Cc1cc(C)c(Oc2ncc(-c3ccccc3C(C)(C)C)cc2C(=O)NS(=O)(=O)c2cccc(N)n2)c(C)c1 [Compound 868, N-[(6-amino-2-pyridyl)sulfonyl]-5-(2-tert-butylphenyl)-2-(2,4,6-trimethylphenoxy)pyridine-3-carboxamide]
++ (“++” means between 3 uM and 10 uM) | Cc1cc(C)c(CN2C[C@H](c3ccccc3)C[C@H]2C(=O)NS(=O)(=O)c2cccc(N)n2)c(C)c1 [Compound 870, (2S,4S)—N-[(6-amino-2-pyridyl)sulfonyl]-4-phenyl-1-[(2,4,6-trimethylphenyl)methyl]pyrrolidine-2-carboxamide]
+++ (“+++” means <3 uM) | Cc1cc(C)c(Oc2nc(-c3ccc(C)cc3F)ccc2C(=O)NS(=O)(=O)c2cccc(N)n2)c(C)c1 [Compound 875, N-[(6-amino-2-pyridyl)sulfonyl]-6-(2-fluoro-4-methyl-phenyl)-2-(2,4,6-trimethylphenoxy)pyridine-3-carboxamide]
+ (“+” means greater than 10 uM) | Cc1ccc(-c2ccc(C(=O)NS(=O)(=O)c3cc[nH]n3)c(NCC3(C)CCOCC3)n2)cc1 [Compound 879, 2-[(4-methyltetrahydropyran-4-yl)methylamino]-6-(p-tolyl)-N-(1H-pyrazol-3-ylsulfonyl)pyridine-3-carboxamide]
++ (“++” means between 3 uM and 10 uM) | Cc1cc(C)c(Oc2nc(C)ccc2C(=O)NS(=O)(=O)c2cccc(N3CCOCC3)n2)c(C)c1 [Compound 883, 6-methyl-N-[(6-morpholino-2-pyridyl)sulfonyl]-2-(2,4,6-trimethylphenoxy)pyridine-3-carboxamide]
++ (“++” means between 3 uM and 10 uM) | CC(C)Oc1ccc(-c2ccc(C(=O)NS(=O)(=O)c3cccc(N)n3)c(N3CCC(OCC4CC4)CC3)n2)cn1 [Compound 884, N-[(6-amino-2-pyridyl)sulfonyl]-2-[4-(cyclopropylmethoxy)-1-piperidyl]-6-(6-isopropoxy-3-pyridyl)pyridine-3-carboxamide]
+++ (“+++” means <3 uM) | Cc1cc(C)c(Oc2nc(-c3cccc(C#N)c3)ccc2C(=O)NS(=O)(=O)c2cccc(N)n2)c(C)c1 [Compound 886, N-[(6-amino-2-pyridyl)sulfonyl]-6-(3-cyanophenyl)-2-(2,4,6-trimethylphenoxy)pyridine-3-carboxamide]
++ (“++” means between 3 uM and 10 uM) | CC(C)Oc1ccc(-c2ccc(C(=O)NS(=O)(=O)c3cccc(N)n3)c(N3CCC(F)(F)CC3)n2)cn1 [Compound 889, N-[(6-amino-2-pyridyl)sulfonyl]-2-(4,4-difluoro-1-piperidyl)-6-(6-isopropoxy-3-pyridyl)pyridine-3-carboxamide]
+++ (“+++” means <3 uM) | CC(C)c1ccc(-c2ccc(C(=O)NS(=O)(=O)c3cccc(N)n3)c(N3C[C@H](C)CC3(C)C)n2)cc1 [Compound 890, N-[(6-amino-2-pyridyl)sulfonyl]-6-(4-isopropylphenyl)-2-[(4R)-2,2,4-trimethylpyrrolidin-1-yl]pyridine-3-carboxamide]
++ (“++” means between 3 uM and 10 uM) | COc1ncc(-c2ccc(C(=O)NS(=O)(=O)c3cc[nH]n3)c(Oc3ccc(C)cc3C)n2)cc1C [Compound 892, 2-(2,4-dimethylphenoxy)-6-(6-methoxy-5-methyl-3-pyridyl)-N-(1H-pyrazol-3-ylsulfonyl)pyridine-3-carboxamide]
